Source: US20240082260A1, “INHIBITOR OF PROTEIN KINASE D FOR USE IN PREVENTION OR TREATMENT OF HYPERLIPIDEMIA” (priority 2021, published 2024)

Assays:
Caco2 cells = assay: Lipid transport (14C-fatty acid release) through Caco2 monolayer in transwell system; type: cell-based, human; details: 20 μM, 24 h, vs DMSO; FIG. 8
Method: Lipid transport studies were assessed in Caco2 cells seeded in trans-wells. 1.5×10^5 cells were seeded into a 12-well cell culture insert of 1 μm pore size Trans-well and maintained in for 14 consecutive days with media change every two days. For the lipids uptake and release, the apical side of the membrane was loaded with radioactive ^14C-palmitic acid (0.2 μCi), oleic acid (1 mM), and taurocholic acid (2 mM) in DMEM high glucose 10% FBS. The basal medium contained DMEM high glucose 0.1% FBS. After 24 hours of incubation, cell lysates and the apical and basolateral medium was collected and the ^14C-palmitic acid was measured in a scintillation counter for aliquots of apical and basal medium and for cell lysate. The same protocol was used in Caco2 cells that were treated with CRT0066101 (3 and 5 μM) for 24 h (added together with the mentioned radioactive fatty acid cocktail).
In order to test the potential of PKD inhibitors to restrict lipid transport via epithelial monolayer, we employed Caco2 cells seeded into the Transwells system. Briefly, we plated 1.5×10^5 cells seeded into a 12-well cell culture inserts of 1-μm pore size Transwell and maintained in for 14 consecutive days with media change every 2 days. For the lipid uptake and release, the apical side of the membrane was loaded with radioactive 14C-palmitic acid (0.2 μCi), oleic acid (1 mM), and taurocholic acid (2 mM) in DMEM high glucose 10% FBS. The basal medium contained DMEM high glucose 0.1% FBS. After 24 h of incubation, cell lysates and the apical and basolateral medium were collected and the 14C-palmitic acid was measured in a scintillation counter for aliquots of apical and basal medium and for cell lysate. To assess the efficiency of different PKD inhibitors, Caco2 cells were treated with either CRT0066101 (5 μM), CID2011756 (20 μM), CID755673 (20 μM), 1-NM-PP1 (20 μM), or control solvent solution (DMSO) for 24 h (added together with the mentioned radioactive FA cocktail).

LDLR-deficient mice = details: cited from earlier work
male C57BL/6 mice on HFD = assay: Oral PKD inhibitor in HFD-fed C57BL/6 mice (diet-induced obesity and diabetes); type: in vivo, mouse; details: oral administration, mice; also said to prevent hyperlipidemia and diabetes and improve microflora
Method: Mice body weight development was closely monitored and reported here on a weekly basis when mice were on a specified diet. All experiments were performed in male mice.
PKD inhibitor CRT0066101 was dissolved in water (10 mg/kg) and administered orally to the mice by daily gavage, while the control mice were gavaged with water. Mice were maintained on the specified diets and had ab libitum access to food and water. C57BL/6 mice were administered CRT inhibitor treatment at 4-weeks of age, while for the rescue experiment, inhibitor was given under the same circumstances but treatment started only after 7 weeks of HFD feeding. Intestinal barrier permeability was further assessed 1 hour after oral gavage of FITC-Dextran 4.
Energy expenditure, food intake, and activity measurements were obtained in a PhenoMaster (TSE Systems) as previously described (El-Merahbi, Viera et al., 2020, Trujillo Viera, El-Merahbi et al., 2016). Briefly, mice were kept in separate metabolic cages with unlimited access to water and to the specified diet. After 48 hours of acclimation, data was collected every 10 min including photobeam breaks, oxygen consumption, carbon dioxide dissipation, and food and water consumption. Results in bars represent the average of each night/day cycle.
A glucose tolerance test (GTT) was performed after overnight fasting. Mice blood glucose was assessed before and 15, 30, 60, 90, and 120 minutes after intraperitoneal injection of glucose (2 g/kg). For the Insulin tolerance test (ITT), the same measurements were performed after 4 hours of fasting and intraperitoneal injection of 0.5 U/kg of recombinant insulin. For glucose measurements, one blood drop was drawn from the tail tip into a test strip and measured with a glucometer (Accu-Chek® Roche).
Lipids tolerance test was performed as described previously (Wang, Rong et al., 2016b). Briefly, overnight fasted mice were gavaged with olive oil (10 μL/g body weight). Blood was collected at indicated times for measurement of serum triglycerides content. For lipids absorption under tyloxapol treatment, 250 μg/g of body weight were i.p. injected to mice 30 minutes before the gavage of olive oil 5 μL/g body weight.
Liver triglycerides were measured by homogenization of 50 mg of liver in 500 uL of lysis buffer and lipids extraction in methanol:chloroform, phase extraction and evaporation. The lipids were redissolved in DMSO and triglycerides quantified with the mentioned kit and according to the manufacturers' instructions.
The bedding of single-caged mice was collected and the ingested food ingestion from the individual mice was assessed. All the stools were manually collected. After overnight dissecation at 60° C., the samples were weighted and frozen for further analysis. The amount of feces produced per mouse was compared to the amount of food consumed and the weight gain. About 3 g of dried feces material were homogenized and 1 g was pressed into a tablet and accurately weighted. Calorie content from feces and diet was measured in duplicates in a 6400 Automatic Isoperibol calorimeter (Parr Instrument Company). To analyze energy excreted, the amount of energy in feces was compared to the amount of energy ingested (the product between grams of food and caloric content of the food). Lipids extraction from feces was performed as previously described (Kraus, Yang et al., 2015).
Proteins from tissues and cell culture were extracted with RIPA buffer supplemented with phosphatase and protease inhibitor (PPI, Thermo Fisher Scientific). Protein concentration was measured by Pierce™ BCA Protein Assay Kit (Thermo Fisher Scientific) following the manufacturer's protocol. Reduced protein extracts were separated on 10% SDS-PAGE gels by electrophoresis and transferred to PVDF membranes under wet transfer. Membranes were blocked in 5% (w/v) milk in TBS-T before overnight probing with indicated primary antibodies at 4° C., followed by TBS-T washes and incubation with corresponding secondary antibody.

CC(C)(C)n1nc(Cc2cccc3ccccc23)c2c(N)ncnc21 [1-NM-PP1, 1-(tert-butyl)-3-(nafthalen-1-ylmethyl)-1H-pirazol[3,4-d]pyrimidine-4-amine]
lipid transport through the Caco2 monolayer (Caco2 cells): significant reduction in lipid transport

CC(C)c1c(C(=O)Nc2ccccc2)c(-c2ccccc2)c(-c2ccc(F)cc2)n1CC[C@@H](O)C[C@@H](O)CC(=O)O [Atorvastatin]
course of atherosclerosis (LDLR-deficient mice): efficiently attenuating the course of atherosclerosis

O=C1NCCCc2c1oc1ccc(O)cc21 [CID755673]
lipid transport through the Caco2 monolayer (Caco2 cells): significant reduction in lipid transport
obesity induced by a high-fat diet (summary statement) (male C57BL/6 mice on HFD): significantly reduces obesity induced by a high-fat diet

O=C(Nc1ccc(CN2CCOCC2)cc1)c1ccc(-c2cccc(Cl)c2)o1 [CID2011756]
lipid transport through the Caco2 monolayer (Caco2 cells): significant reduction in lipid transport
